Experimental data taken from patent publication US7211572B2 (Japan Tobacco Inc., priority 2003, dated 2007).
Where a name gives a salt, the structure may show the parent alone.

These compounds were tested against T1, HIV integrase (Human immunodeficiency virus type 1 group M subtype B, UniProt P12497, F1332H) (assay: Determination of enzyme (HIV integrase) inhibitory activity). Settings: recombinant HIV integrase (F185H), strand transfer ELISA, absorbance at 450 nm.
T1 construct: HIV integrase full length gene; made in house; host or cells: Escherichia coli BL21(DE3), plasmid pET21a-INH
Type: biochemical
In short: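 Full-length integrase with F185H, expressed in E. coli and purified, was reacted for 60 min at 37 °C with compound and biotinylated donor DNA bound to streptavidin plates. Target DNA was added for 10 min, then anti-digoxigenin-peroxidase detection at A450; IC50 from % inhibition versus enzyme-free blank.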
With `CC(C)CC(=O)c1cn2ccn(Cc3ccc(F)cc3)c(=O)c2c(O)c1=O` [Example 387, 2-(4-fluorobenzyl)-9-hydroxy-7-(3-methylbutyryl)-2H-pyrido[1,2-a]pyrazine-1,8-dione hydrochloride] the IC50 was 10 to 100 nM.
Compound `CNC(=O)c1cn2c(c(O)c1=O)C(=O)N(Cc1ccc(F)c(F)c1)CC2` [Example 388, N-methyl-2-(3,4-difluorobenzyl)-9-hydroxy-1,8-dioxo-1,3,4,8-tetrahydro-2H-pyrido[1,2-a]pyrazine-7-carboxamide] has an IC50 of 100 to 1000 nM.
Compound `COCC(C)(C)C(=O)c1cn2c(c(O)c1=O)C(=O)N(Cc1ccc(F)cc1)CC2` [Example 389, 2-(4-fluorobenzyl)-9-hydroxy-7-(3-methoxy-2,2-dimethylpropionyl)-3,4-dihydro-2H-pyrido[1,2-a]pyrazine-1,8-dione] has an IC50 of 10 to 100 nM.
For `O=c1c(-c2ccncn2)cn2ccn(Cc3cccc(Cl)c3)c(=O)c2c1O` [Example 391, 2-(3-chlorobenzyl)-9-hydroxy-7-(pyrimidin-4-yl)-2H-pyrido[1,2-a]pyrazine-1,8-dione hydrochloride], the IC50 was 10 to 100 nM.
With `O=C1c2c(O)c(=O)c(-c3ccncn3)cn2CCN1Cc1ccc(F)cc1` [Example 392, 2-(4-fluorobenzyl)-9-hydroxy-7-(pyrimidin-4-yl)-3,4-dihydro-2H-pyrido[1,2-a]pyrazine-1,8-dione hydrochloride] the IC50 was 10 to 100 nM.
`O=C1c2c(O)c(=O)c(-c3ccncn3)cn2CCN1Cc1ccc(Cl)cc1` [Example 393, 2-(4-chlorobenzyl)-9-hydroxy-7-(pyrimidin-4-yl)-3,4-dihydro-2H-pyrido[1,2-a]pyrazine-1,8-dione hydrochloride] showed an IC50 of 10 to 100 nM.
`O=C1c2c(O)c(=O)c(-c3ccncn3)cn2CCN1Cc1ccc(F)c(Cl)c1` [Example 394, 2-(3-chloro-4-fluorobenzyl)-9-hydroxy-7-(pyrimidin-4-yl)-3,4-dihydro-2H-pyrido[1,2-a]pyrazine-1,8-dione hydrochloride] was tested, and the IC50 was 10 to 100 nM.
With `O=c1c(-c2ccncn2)cn2ccn(Cc3ccc(F)c(Cl)c3)c(=O)c2c1O` [Example 395, 2-(3-chloro-4-fluorobenzyl)-9-hydroxy-7-(pyrimidin-4-yl)-2H-pyrido[1,2-a]pyrazine-1,8-dione hydrochloride] the IC50 was under 10 nM.
`CCCOc1cc(Cl)cc(CN2CCn3cc(-c4nccs4)c(=O)c(O)c3C2=O)c1` [Example 396, 2-(3-chloro-5-propoxybenzyl)-9-hydroxy-7-(thiazol-2-yl)-3,4-dihydro-2H-pyrido[1,2-a]pyrazine-1,8-dione hydrochloride] gave an IC50 of 10 to 100 nM.
`CC(C)Oc1cc(Cl)cc(CN2CCn3cc(-c4nccs4)c(=O)c(O)c3C2=O)c1` [Example 397, 2-(3-chloro-5-isopropoxybenzyl)-9-hydroxy-7-(thiazol-2-yl)-3,4-dihydro-2H-pyrido[1,2-a]pyrazine-1,8-dione hydrochloride] was tested, and the IC50 was 10 to 100 nM.
With `O=C1c2c(O)c(=O)c(-c3nccs3)cn2CCN1Cc1cc(Cl)cc(OCc2ccccc2)c1` [Example 398, 2-(3-benzyloxy-5-chlorobenzyl)-9-hydroxy-7-(thiazol-2-yl)-3,4-dihydro-2H-pyrido[1,2-a]pyrazine-1,8-dione hydrochloride] the IC50 was 10 to 100 nM.
For `O=c1c(-c2ccncn2)cn2ccn(Cc3ccc(Cl)cc3)c(=O)c2c1O` [Example 399, 2-(4-chlorobenzyl)-9-hydroxy-7-(pyrimidin-4-yl)-2H-pyrido[1,2-a]pyrazine-1,8-dione hydrochloride], the IC50 was under 10 nM.
With `O=C(Cc1cccnc1)Nc1cn2ccn(Cc3cccc(Cl)c3)c(=O)c2c(O)c1=O` [Example 400, N-[2-(3-chlorobenzyl)-9-hydroxy-1,8-dioxo-1,8-dihydro-2H-pyrido[1,2-a]pyrazin-7-yl]-2-(pyridin-3-yl)acetamide hydrochloride] the IC50 was under 10 nM.
For `O=C(Cc1ccncc1)Nc1cn2ccn(Cc3cccc(Cl)c3)c(=O)c2c(O)c1=O` [Example 401, N-[2-(3-chlorobenzyl)-9-hydroxy-1,8-dioxo-1,8-dihydro-2H-pyrido[1,2-a]pyrazin-7-yl]-2-(pyridin-4-yl)acetamide hydrochloride], the IC50 was 10 to 100 nM.
Work on `O=C(Cc1ccccn1)Nc1cn2ccn(Cc3cccc(Cl)c3)c(=O)c2c(O)c1=O` [Example 402, N-[2-(3-chlorobenzyl)-9-hydroxy-1,8-dioxo-1,8-dihydro-2H-pyrido[1,2-a]pyrazin-7-yl]-2-(pyridin-2-yl)acetamide hydrochloride] yielded an IC50 of 10 to 100 nM.
Compound `O=c1c(-c2ccncn2)cn2ccn(Cc3cccc(F)c3)c(=O)c2c1O` [Example 403, 2-(3-fluorobenzyl)-9-hydroxy-7-(pyrimidin-4-yl)-2H-pyrido[1,2-a]pyrazine-1,8-dione hydrochloride] has an IC50 of 10 to 100 nM.
With `O=c1c(-c2cnccn2)cn2ccn(Cc3cccc(F)c3)c(=O)c2c1O` [Example 404, 2-(3-fluorobenzyl)-9-hydroxy-7-(pyrazin-2-yl)-2H-pyrido[1,2-a]pyrazine-1,8-dione hydrochloride] the IC50 was 10 to 100 nM.
`Cn1ncnc1-c1cn2ccn(Cc3ccc(F)c(Cl)c3)c(=O)c2c(O)c1=O` [Example 405, 2-(3-chloro-4-fluorobenzyl)-9-hydroxy-7-(2-methyl-2H-1,2,4-triazol-3-yl)-2H-pyrido[1,2-a]pyrazine-1,8-dione hydrochloride] showed an IC50 of under 10 nM.
`CC(C)(C)CC(=O)Nc1cn2c(c(O)c1=O)C(=O)N(Cc1ccc(F)c(Cl)c1)CC2` [Example 406, N-[2-(3-chloro-4-fluorobenzyl)-9-hydroxy-1,8-dioxo-1,3,4,8-tetrahydro-2H-pyrido[1,2-a]pyrazin-7-yl]-3,3-dimethylbutyramide] showed an IC50 of 10 to 100 nM.
`Cc1cn(Cc2cccc(F)c2)c(=O)c2c(O)c(=O)c(-c3ccccn3)cn12` [Example 407, 2-(3-fluorobenzyl)-9-hydroxy-4-methyl-7-(pyridin-2-yl)-2H-pyrido[1,2-a]pyrazine-1,8-dione hydrochloride] gave an IC50 of 10 to 100 nM.
With `Cc1cn(Cc2ccc(F)cc2)c(=O)c2c(O)c(=O)c(C(=O)C(C)(C)C)cn12` [Example 408, 7-(2,2-dimethylpropionyl)-2-(4-fluorobenzyl)-9-hydroxy-4-methyl-2H-pyrido[1,2-a]pyrazine-1,8-dione hydrochloride] the IC50 was 10 to 100 nM.
For `COCc1c(C(=O)C(C)(C)C)c(=O)c(O)c2n1CCN(Cc1ccc(F)cc1)C2=O` [Example 409, 7-(2,2-dimethylpropionyl)-2-(4-fluorobenzyl)-9-hydroxy-6-methoxymethyl-3,4-dihydro-2H-pyrido[1,2-a]pyrazine-1,8-dione hydrochloride], the IC50 was 10 to 100 nM.
With `O=C(NCc1ccccn1)c1cn2c(c(O)c1=O)C(=O)N(Cc1ccc(F)cc1)CC2` [Example 410, N-(pyridin-2-ylmethyl)-2-(4-fluorobenzyl)-9-hydroxy-1,8-dioxo-1,3,4,8-tetrahydro-2H-pyrido[1,2-a]pyrazine-7-carboxamide hydrochloride] the IC50 was 10 to 100 nM.
`O=C(NCc1ccco1)c1cn2c(c(O)c1=O)C(=O)N(Cc1ccc(F)cc1)CC2` [Example 411, N-(furan-2-ylmethyl)-2-(4-fluorobenzyl)-9-hydroxy-1,8-dioxo-1,3,4,8-tetrahydro-2H-pyrido[1,2-a]pyrazine-7-carboxamide hydrochloride] showed an IC50 of 10 to 100 nM.
`CC(C)(C)C(=O)c1cn2c(c(O)c1=O)C(=O)N(Cc1ccc(F)cc1)CC2(C)C` [Example 412, 7-(2,2-dimethylpropionyl)-2-(4-fluorobenzyl)-9-hydroxy-4,4-dimethyl-3,4-dihydro-2H-pyrido[1,2-a]pyrazine-1,8-dione hydrochloride] gave an IC50 of 10 to 100 nM.
Compound `CC1(C)CN(Cc2ccc(F)cc2)C(=O)c2c(O)c(=O)c(Br)cn21` [Example 413, 7-bromo-2-(4-fluorobenzyl)-9-hydroxy-4,4-dimethyl-3,4-dihydro-2H-pyrido[1,2-a]pyrazine-1,8-dione hydrochloride] has an IC50 of 100 to 1000 nM.
`CC1(C)CN(Cc2ccc(F)cc2)C(=O)c2c(O)c(=O)c(-c3ccccn3)cn21` [Example 414, 2-(4-fluorobenzyl)-9-hydroxy-4,47dimethyl-7-(pyridin-2-yl)-3,4-dihydro-2H-pyrido[1,2-a]pyrazine-1,8-dione hydrochloride] gave an IC50 of 100 to 1000 nM.
`CN(C)c1ccc(CNC(=O)c2cn3c(c(O)c2=O)C(=O)N(Cc2ccc(F)cc2)CC3)cc1` [Example 415, N-(4-dimethylaminobenzyl)-2-(4-fluorobenzyl)-9-hydroxy.-1,8-dioxo-1,3,4,8-tetrahydro-2H-pyrido[1,2-a]pyrazine-7-carboxamide hydrochloride] was tested, and the IC50 was 10 to 100 nM.
With `O=C1c2c(O)c(=O)c(-c3cnccn3)cn2CCN1Cc1cccc(Cl)c1` [Example 416, 2-(3-chlorobenzyl)-9-hydroxy-7-(pyrazin-2-yl)-3,4-dihydro-2H-pyrido[1,2-a]pyrazine-1,8-dione hydrochloride] the IC50 was 10 to 100 nM.
For `O=C1c2c(O)c(=O)c(-c3cnccn3)cn2CCN1Cc1ccc(F)cc1` [Example 417, 2-(4-fluorobenzyl)-9-hydroxy-7-(pyrazin-2-yl)-3,4-dihydro-2H-pyrido[1,2-a]pyrazine-1,8-dione hydrochloride], the IC50 was 10 to 100 nM.
Work on `O=C1c2c(O)c(=O)c(NS(=O)(=O)c3ccccc3)cn2CCN1Cc1ccc(F)c(Cl)c1` [Example 418, N-[2-(3-chloro-4-fluorobenzyl)-9-hydroxy-1,8-dioxo-1,3,4,8-tetrahydro-2H-pyrido[1,2-a]pyrazin-7-yl]benzenesulfonamide] yielded an IC50 of 10 to 100 nM.
`O=C1c2c(O)c(=O)c(NS(=O)(=O)Cc3ccccc3)cn2CCN1Cc1ccc(F)c(Cl)c1` [Example 419, N-[2-(3-chloro-4-fluorobenzyl)-9-hydroxy-1,8-dioxo-1,3,4,8-tetrahydro-2H-pyrido[1,2-a]pyrazin-7-yl]benzylsulfonamide] gave an IC50 of under 10 nM.
Work on `O=C1c2c(O)c(=O)c(NS(=O)(=O)c3cccs3)cn2CCN1Cc1ccc(F)c(Cl)c1` [Example 420, N-[2-(3-chloro-4-fluorobenzyl)-9-hydroxy-1,8-dioxo-1,3,4,8-tetrahydro-2H-pyrido[1,2-a]pyrazin-7-yl]-2-thiophenesulfonamide] yielded an IC50 of 10 to 100 nM.
